# Source: the METLIN SMRT retention time set (Domingo-Almenara et al. 2019)
# Experiment: gradient 5% acetonitrile 3 min, to 50% in 2 min, to 85% in 15 min, held 3 min, 100 µL/min
# Settings: column: Zorbax Extend-C18 2.1 x 50 mm; eluents: water / acetonitrile, 0.1% formic acid
# Summary of the method: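 Pure standards were run in mixtures of ~100 molecules by HPLC coupled to a quadrupole time-of-flight mass spectrometer. The column was a Zorbax Extend-C18 (2.1 × 50 mm, 1.8 μm) at 100 μL/min, with water and acetonitrile each containing 0.1% formic acid, in positive and negative ionization mode. Dead and dwell volumes were 40 μL and 900 μL. Retention time was taken from computationally picked adduct peaks, each manually inspected, with data collected over 3 months.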
row,Compound,RP-LC retention time [s]
1,Cc1ccc(S(=O)(=O)N2CCC3(CC2)CC(C)(O)CCO3)cc1 (stereo not given),806
2,Cn1cc(S(=O)(=O)N2CCCCC2)cc1C(=O)Nc1cccc(F)c1,1020
3,C#CCSc1nc2ccccc2c2nc(-c3cccnc3)nn12,998
4,O=C1CN(C(=O)COc2ccccc2)C(c2ccccc2)c2cc(F)ccc2N1 (stereo not given),826
5,COc1ccc(CC(=O)Nc2ccc3c(c2)Sc2ncccc2C(=O)N3C)cc1,748
6,CC(=O)c1ccc(NC(=O)CCn2nc(C)nc2C)cc1,557
7,Cc1cccc(N2CCN(C(=O)C3CCCN(c4cnc5nccnc5c4)C3)CC2)c1 (stereo not given),775
8,COc1ccc(N2C(=O)N[C@@H]3C[C@]2(C)Oc2ccc(C)cc23)cc1OC,735
9,O=C(CN1CCN(C(=O)c2ccco2)CC1)Nc1cc(Cl)ccc1Cl,704
10,COCCn1cc(C(=O)Nc2ccccc2)c2nn(-c3ccccc3)c(=O)c-2c1,937
11,O=C(c1cc(-c2ccncc2)n[nH]1)N1CCC(C(=O)N2CCc3ccccc32)CC1,614
12,CCc1cccc(NC(=O)C2(C)Oc3cccnc3N(C(C)C)C2=O)c1 (stereo not given),1120
13,O=C(Nc1ccc2c(c1)OCCO2)C1CCN(C(=O)c2cc(-c3cccnc3)n[nH]2)CC1,655
14,COc1cc(F)ccc1-c1ccnc2nc(C3CCCCC3)nn12,1000
15,Cc1ccc(Nc2c(-c3ccccc3)nc3cnccn23)c(C)c1,982
16,COc1cc2c(cc1OC)C(/C=C/c1ccco1)=NCC2,693
17,C[C@@H]1CN(C(=O)NC2CCCC2)C[C@H]1c1nc(-c2ccncc2)no1,671
18,O=C(Cn1cccn1)N1CCCC(COCc2ccccc2)C1 (stereo not given),709
19,COC(=O)c1ccc2c(=O)n(-c3cccc(C)c3)c(N3CCCC3)nc2c1,953
20,Cc1ccc(N2CCC(NC(=O)c3ccc(C)s3)C2=O)cc1 (stereo not given),842
21,Cc1ccc2c(=O)cc(C(=O)NCC(c3ccccc3)N(C)C)oc2c1C (stereo not given),636
22,Cc1cc(Cl)ccc1S(=O)(=O)N1CCC(OC2CCN(c3ccccc3)C2=O)CC1 (stereo not given),1080
23,Cc1cc(Cl)ccc1NC(=O)N1C[C@@H](F)C[C@H]1C(=O)N1CCc2ccccc2C1,908

row,Compound,RP-LC retention time [s]
1,NC(N)=NCCC[C@H](NC(=O)[C@@H]1CCCN1C(=O)[C@H](N)Cc1ccccc1)C(=O)CCl,1100
2,Cc1nc(CC(=O)Nc2ccc(Cl)cc2F)cs1,838
3,Cc1sc(NC(=O)c2ccc(F)cc2)nc1-c1ccc(Br)cc1,1240
4,Cc1ccc(N2CC(C(=O)Nc3cc(-c4nc(C)cs4)sc3C)CC2=O)cc1 (stereo not given),848
5,CC(C)c1noc(COC2CCN(C(=O)NCc3ccco3)CC2)n1,739
6,Cn1cnc2cc(-c3noc(CNC(=O)c4ccco4)n3)ccc21,585
7,O=C1CSc2ccc(S(=O)(=O)N3CCC(C(=O)NC4CC4)CC3)cc2N1,662
8,CCN1CCN(CCCNC(=O)C(C)n2c3ccccc3c3cnn(C)c(=O)c32)CC1 (stereo not given),553
9,Cc1ccc(C(=O)NCc2ccc(N3CCCC3)nc2)s1,601
10,CCOc1ccccc1C(=O)N1CCC2(CC1)NC(=O)c1ccc(Cl)cc1N2,790
11,Cn1nc2n(c1=O)CCN(C(=O)C1CC=CCC1)CC2 (stereo not given),624
12,O=C(NCCCN1CCOCC1)c1ccc(OCc2nnc(C(=O)Nc3ccccc3F)s2)cc1,658
13,CCn1c(=O)oc2cc(S(=O)(=O)N3CCN(C(=O)C4(c5ccccc5)CC4)CC3)ccc21,848
14,O=C(c1ccco1)N1CCCn2cc(-c3ccccc3F)nc21,639
15,CC1CCN(c2nn(CC(=O)NCCc3ccc(Cl)cc3)c(=O)c3ccccc23)CC1,1190
16,COc1ccc(CCNC(=O)c2cccc3c2C(=O)N(CC2CCCO2)C3)c(OC)c1OC (stereo not given),875
17,Cc1c(-c2nnc(C(=O)NCCN(C)C)o2)oc2c(C)cccc12,651
18,CCc1onc(C)c1C1CCCN1C(=O)Nc1cccc(OC)c1 (stereo not given),791
19,O=C(C1=CN(c2ccc(Cl)cc2)c2cc(F)ccc2S1(=O)=O)N1CCOCC1,830
20,O=C(C1CCN(c2nccnc2Sc2ccccc2)CC1)N1CCN(c2ccccn2)CC1,682
21,CCN1CCN(CCNC(=O)CN2CCCc3nc(C4CC4)ncc3C2=O)CC1,564
22,CCCn1c(=O)sc2cc(S(=O)(=O)N3CCC(C(=O)Nc4cccc(C)n4)CC3)ccc21,844
23,CCNC(=O)c1cc(=O)[nH]c2c(Cl)cccc12,614

row,Compound,RP-LC retention time [s]
1,O=C(NCCCN1CCOCC1)C1CCCN(c2ncnc3c2nc2n3CCCCC2)C1 (stereo not given),580
2,COc1ccc(OC)c(NS(=O)(=O)c2cc3c(s2)CCN(C(=O)C2CC2)C3)c1,821
3,O=C(NC1CC1)[C@@H]1C[C@H](Oc2ccccc2)CN1C(=O)C1CC1,684
4,CCOC(=O)c1ccc2nc(C(F)(F)F)nc(NCCCc3ccccc3)c2c1,1300
5,COc1nn(C)cc1C(=O)Nc1nnc(C)s1,583
6,CC(C)Cn1c(=O)c2cc(C(=O)NC(C)c3cccs3)nn2c2ccccc21 (stereo not given),1050
7,Cc1ccc(N2CCN(C(=O)c3sc4ncccc4c3-n3cccc3)CC2)c(C)c1,1260
8,Cn1cc(S(=O)(=O)N2CCC(C(=O)NCc3ccccc3Cl)CC2)cc1C(=O)N1CCCC1,752
9,CN(C)c1cccc(C(=O)N2CCN(C(=O)C3CC3c3ccc4c(c3)OCO4)CC2)c1 (stereo not given),715
10,CCOCc1nc(C2CCCN2S(=O)(=O)c2cccc3nsnc23)no1 (stereo not given),836
11,NCCC1CCN(C(=O)Nc2ccc(F)cc2F)CC1,585
12,Cc1ccc(-c2nc(N)n(C(=O)C(C)(C)C)n2)cc1,1080
13,Cn1c(=O)c(F)c(Nc2ccc(I)cc2F)c2c(=O)n(C[C@@H](O)CO)cnc21,756
14,Cc1ccc(C)c(NC(=O)C2CCN(S(=O)(=O)c3c(C)[nH]c(C)c3C(=O)N3CCCC3)CC2)c1,726
15,COc1ccc(CCNC(=O)[C@@H]2[C@H](c3cc(OC)c(OC)c(OC)c3)c3cc4c(cc3[C@H](O)[C@H]2CO)OCO4)cc1OC,699
16,Cc1cc(N2CCOCC2)n2nc(CN3CCN(c4cc(Cl)ccc4C)CC3)nc2n1,668
17,Cc1nc(-c2ccc(N3CCN(C(=O)Nc4ccc(F)cc4)CC3)cc2)no1,787
18,Cc1cccc(NC(=O)Cn2c(-c3cnccn3)nc(C)c(C)c2=O)c1,707
19,CCCOc1nccnc1NC1CCN(C(=O)c2ccsc2)CC1,713
20,CCCC(C)C(=O)N1CCCN(C2=NS(=O)(=O)C(c3ccc(C)cc3)=C2C)CC1 (stereo not given),884
21,O=C(NC1COc2ccccc2C1)N1CCOCC1 (stereo not given),660
22,CSc1ccccc1C(=O)N(CCN(C)C)c1nc2ccc([N+](=O)[O-])cc2s1,615
23,Cn1nccc1C(=O)N1CCCC1c1ccc(Cl)cc1 (stereo not given),817

row,Compound,RP-LC retention time [s]
1,Cc1ccc(OCC(=O)Nc2cncc(-c3nc4ccccc4o3)c2)cc1,1010
2,Cc1cc(Cl)ccc1OCc1nc(-c2cccc(-c3ccnn3C)c2)no1,1200
3,Cc1ccc(Cl)cc1NC(=O)N1CCc2nc[nH]c2C1,612
4,COc1ccc(Cl)cc1NC(=O)C(=O)c1cccn1C,1140
5,Nc1nc(N2CCOCC2)ncc1C(=O)NCc1ccccc1,609
6,Cc1ccc(NS(=O)(=O)c2ccc(-c3c(C)noc3C)cc2)cc1C,996
7,COc1ccc(-c2ccnn2-c2ccc(SCc3cccc(F)c3)nn2)cc1,1300
8,Cc1cc(C)cc(C(=O)N2CCN(c3cc(=O)n(C)c(=O)n3C)CC2)c1,691
9,COc1ccc2[nH]cc(CCNC(=O)Cn3nc4c(cc3=O)CCCC4)c2c1,714
10,Cc1cc(C)c2oc(C(=O)NCC(c3ccccc3)N(C)C)cc(=O)c2c1 (stereo not given),636
11,COc1ccc(-c2nnc(CC(=O)NCCC3=CCCCC3)o2)cc1,889
12,COc1cccc(CNC(=O)Cn2cnc3c(sc4nc(-c5ccccc5)ccc43)c2=O)c1,975
13,Cc1ccc(-c2noc(Cn3nc(-c4ccc5c(c4)OCO5)ccc3=O)n2)cc1C,1060
14,Cc1ccc(-n2nnc(C(=O)O)c2C)c(F)c1,705
15,COc1ccc(C)cc1NC(=O)N1CCC(c2nc3ccncc3n2CC(C)C)C1 (stereo not given),586
16,Cc1nn(-c2ccccc2)c(C)c1S(=O)(=O)N1CCC(C(=O)NCc2ccc3c(c2)OCO3)CC1,884
17,Cc1ccc(Oc2cccc(C(=O)NCCNc3cc(N4CCCC4)nc(C)n3)c2)nn1,562
18,CCCN1C(=O)c2cc(S(=O)(=O)N3CCCC3)ccc2Oc2cccnc21,913
19,O=C(NCc1ccccn1)c1ccc(NC(=O)C2CC2)cc1N1CCCCCC1,593
20,Cc1cc(-c2cc(S(=O)(=O)N(CCN(C)C)Cc3cccs3)c(C)s2)n[nH]1,658
21,Cc1nn(-c2ccccc2)c2nc(C3CC3)cc(C(=O)NCc3ccco3)c12,1100
